Key:
[1] = test system: B5 Clone (High Cx43) MDCK cells; assay: mEV uptake in scratch wound model, B5 Clone (High Cx43) MDCK; assay type: cell-based, canine
Method: Cells are cultured to confluency, then scratched in low serum conditions (1% NCS), rinsed, and supplied fresh medium with 20 μg/mL CTDR-Tagged mEV's. […] (FIG. 4B) Unwounded Parent (Low Cx43) MDCKs; (FIG. 4C) Wounded Parent (Low Cx43) MDCKs; (FIG. 4D) Unwounded B5 Clone (High Cx43) MDCKs; (FIG. 4E) Wounded B5 Clone (High Cx43) MDCKs. […] (FIG. 4G) Wounded B5 Clone (High Cx43) MDCKs provided mEV's; (FIG. 4H) Wounded B5 Clone (High Cx43) MDCKs provided mEV's and Gap27, a Connexin inhibitor.
FIG. 5A-5C—Milk-Derived Extracellular Vesicle targeting capabilities to high Cx43 expressing B5 Clone MDCKS are completely eliminated via use of exogenous Apyrase. Cells are cultured to confluency, then scratched in low serum conditions (1% NCS), rinsed, and supplied fresh medium with 20 μg/mL CTDR-Tagged mEV's with or without 100 uM Apyrase. (FIG. 5A) Wounded B5 Clone (High Cx43) given CTDR-Tagged mEV's; (FIG. 5B) Wounded B5 Clone (High Cx43) given CTDR tagged mEV's with 100 µM Apyrase.
The associated bar graph for particle count analysis is shown above in FIG. 4A. […] This insinuates that mEV uptake by cells is mediated by Cx43 in both unwounded and wounded situations, with unwounded B5 clone cells experiencing similar uptake levels to that of wounded Parent Lampe cells (FIG. 4A). Applicant then tested for the mechanism of uptake in these cells—B5 clone cells were scratch wounded and given fluorescently tagged mEV's, then some were also provided with Gap27 (FIG. 4F), a known Connexin channel blocker. When co-incubated with Gap27 (D2), mEV uptake was blocked by over 25% (FIG. 4F) when compared to those untreated. […] Another mechanism of uptake of mEV's in a wounded environment that Applicant has discovered is ATP (FIG. 5A-5C).
Small extracellular vesicles known as exosomes (nanovesicles of less than or equal to 150 nm diameter) are secreted by nearly all cell types and are thought to have key assignments in intercellular signaling. Reports that exosomes evade immune detection, show propensity to cross tissue boundaries (e.g., the blood-brain barrier) and can be orally administered has also attracted increasing interest in therapeutic applications, including as drug delivery devices. Applicant recently developed a method for large-scale purification of bovine milk-derived extracellular vesicles (Marsh et al., Nanotheranostics. 2021 Jul. 5; 5(4):488-498. doi: 10.7150/ntno.62213. eCollection 2021). […] Girao and co-workers determined that Connexin 43 (Cx43) is present in exosomes derived from cultured cells expressing Cx43, where this gap junction protein has assignments in cellular uptake of exosomal cargo (Soares et al., Sci Rep. 2015 Aug. 19; 5:13243. doi: 10.1038/srep13243). […]

[2] = test system: B5 Clone (High Cx43) MDCK cells; assay: Scratch wound closure (migration index), B5 Clone (High Cx43) MDCK; assay type: cell-based, canine; conditions: B5 Clone MDCKs, 100 uM Apyrase
Method: FIG. 7A-7L—Milk-Derived Extracellular Vesicles contain endogenous bioactive capabilities in a Scratch-Wounded model of wound healing in Cx43-variable MDCK cells. Cells are cultured to confluency, then scratched in low serum conditions (1% NCS), rinsed, and supplied fresh medium with 20 μg/mL mEV's or 20 uL Vehicle (HEPES buffer). (FIG. 7A) Quantification of wound closure using ImageJ border zone analysis plugin software. Scratches are scanned and imaged at t=0 and scratch size is quantified, then after 8 hours, cells are stopped, fixed and imaged again, then final scratch size is quantified. Migration index is calculated by subtracting the final area from the starting and dividing by the average of vehicle control samples, giving a value of 1.0 for vehicle control. mEV's contain endogenous bioactivity that is Cx43 Dependent, with over 8× healing potential when cells contain enhanced Cx43 levels. […] (FIG. 7G) Quantification of wound closure using ImageJ border zone analysis plugin software. Scratches are scanned and imaged at t=0 and scratch size is quantified, then after 8 hours, cells are stopped, fixed and imaged again, then final scratch size is quantified. […]

| Substance | mEV expression with added apyrase ([1]; wounded B5 Clone (High Cx43) MDCKs, 100 uM Apyrase) | reduction in mEV uptake with apyrase ([1]; wounded B5 Clone cells, co-incubated with 100 uM apyrase) | mEV wound healing capabilities with exogenous Apyrase [2] | mEV uptake blocked when co-incubated with Gap27 ([1]; scratch wounded B5 clone cells, compared to untreated) | mEV expression with added Gap27 ([1]; wounded B5 Clone (High Cx43) MDCKs) |
| --- | --- | --- | --- | --- | --- |
| Apyrase | significant and complete elimination | > 95% | heavily reduced |  |  |
| Gap27: a known Connexin channel blocker (TEKTIFIIFML; UniProt P17302 204-214, looked up, fragment) |  |  |  | over 25% | statistical drop |

— patent publication US20260014085A1, “MILK DERIVED EXOSOMES AND USES THEREOF” (VIRGINIA TECH INTELLECTUAL PROPERTIES, INC., priority 2022, published 2026)
